Data on two compounds can be found in patent US12397067B2, “Sulfur- or heavy atom-containing nanoparticles, methods of making same, and uses thereof” (Cornell University, priority 2017, dated 2025).

The conditions of data set [1]: in ethanol; cited from earlier work.
Data set [2] can be described thus: Singlet oxygen quantum yield determination with DPBF sensor, relative to methylene blue. The conditions noted are these: FIG. 15b inset, 635 nm exposure. The method, then:
Determination of singlet oxygen quantum yields, ΦΔ. Measurements were carried out in ethanol with DPBF as a singlet oxygen detector molecule. The DPBF band at 410 nm and λmax of each dye were absorption matched across a particle series. For measurements of effective ΦΔ samples were concentration matched. The spectra were exposed and measured in a 100 μL quartz cuvette (Starna). Samples were evenly exposed to a 635 nm solid-state laser at 3 mW/cm^2 and 1 cm spot size. Measurements were started immediately after DPBF addition. The decrease of the 410 nm DPBF band was measured at various exposure times and corrected against a baseline. ΦΔ for each sample was calculated by comparing to MB (ΦΔ=0.520 in ethanol) as a standard (see example calculations).
Example calculation to determine singlet oxygen quantum yield, ΦΔ. ΦΔ(sample) is determined relative to a standard with known ΦΔ(standard) using equation (5):
[formula] Here, we used methylene blue (MB) as a standard with known ΦΔ(MB)=0.520. With the slopes, m, from the linear fits through the values of the 410 nm DPBF absorption band at different exposure times, ΦΔ(sample) can be calculated. With the values from FIG. 15b inset m(ATTO647N 7.5% iC′ dots)=0.00314 s^−1 and m(MB)=0.02506 s^−1, Φ^Δ (ATT0647N 7.5% iC′ dots)=0.520([…])=0.065.

Data set [3] deals with BxPC3 pancreatic cancer cells. The experiment in a line: Cell toxicity study, Presto Blue % viability. In kind it is cell-based. The settings on record: 14 mM (10% of typical imaging concentration), 16 hours. The method, then:
Cell toxicity studies. BxPC3 pancreatic cancer cells were maintained in RPMI 1640 supplemented with 10% FBS at 37° C. with 5% CO2. To measure effects of C′ dots or βME on cells, cells at ˜70% confluence were washed with PBS, exposed to trypsin, resuspended, and dispensed into 96-well tissue culture plates (20,000 cells per well). Cells were allowed to settle overnight, forming a monolayer ˜70-80% confluent. The medium was removed from each well, and replaced with medium supplemented with varying amounts of either 60% srC′ dots or βME, or with DMSO (carrier agent) alone as a control, as well as 1× Pen-Strep antibiotic. Cells were then incubated for 6 days (srC′ dots) or 16 hours ((ME). Following incubation, medium was removed, cells washed with fresh medium and then incubated for one hour with fresh medium and Presto Blue per the manufacturer's recommendations. The absorbance of the Presto Blue was determined at 570 nm (background 600 nm) using a Tecan Safire microplate reader. Absorption was compared to that of a blank (medium plus Presto Blue in unused wells) to determine % viability of remaining cells, with the DMSO control lane defined as 100% viability, and the empty wells defined as 0% viability. All experiments were performed in triplicate.

In the case of `CN(C)c1ccc2nc3ccc(=[N+](C)C)cc-3sc2c1` [MB, methylene blue], the “singlet oxygen quantum yield, ΦΔ (known value of standard)” value in data set [1] is 0.520. Also, the “slope m of linear fit of ln relative DPBF absorption at 410 nm vs exposure time” value in data set [2] was found to be 0.02506 s^−1. Take `OCCS` [βME, β-mercaptoethanol]: the “%-cell viability” value in data set [3] is listed as “substantial cell death”.
